From US20160108049A1 (TAKEDA Gmbh, priority 2011, published 2016)

Legend:
[1] = biological target: T1, PDE4B1 (Homo sapiens, UniProt Q07343); experiment: Inhibition of PDE4 activity (PDE4B1, SPA assay); type: biochemical; settings: recombinant PDE4B1, 0.5 μM cAMP; read-out: PDE4B1 Inhibitory values measured as -logIC50 (converted)
T1 construct: made in house; host or cells: SF21 insect cells (baculovirus; virus made in SF9 cells, pCR-Bac vector)
Method: Method for Measuring Inhibition of PDE4 Activity
The PDE4B1 (GB no. L20966) was a gift of Prof. M. Conti (Stanford University, USA). It was amplified from the original plasmid (pCMV5) via PCR with primers Rb18 (5′-[…]-3′) and Rb10 (5′-[…]-3′) and cloned into the pCR-Bac vector (Invitrogen, Groningen, NL).
The recombinant baculovirus was prepared by means of homologous recombination in SF9 insect cells. The expression plasmids were cotransfected with Baculo-Gold DNA (Pharmingen, Hamburg) using a standard protocol (Pharmingen, Hamburg). Wt virus-free recombinant virus supernatants were selected using plaque assay methods. After that, high-titre virus supernatants were prepared by amplifying 3 times. PDE4B1 was expressed in SF21 cells by infecting 2×10^6 cells/ml with an MOI (multiplicity of infection) between 1 and 10 in the serum-free SF900 medium (GIBCO Life Technologies, Karlsruhe, Germany) The cells were cultured at 28° C. for 48-72 hours, after which they were pelleted for 5-10 min at 1000×g and 4° C.
The SF21 insect cells were resuspended, at a concentration of approx. 10^7 cells/ml, in ice-cold (4° C.) homogenization buffer (20 mM Tris, pH 8.2, containing the following additions: 140 mM NaCl, 3.8 mM KCl, 1 mM EGTA, 1 mM MgCl2, 10 mM β-mercaptoethanol, 2 mM benzamidine, 0.4 mM Pefablock, 10 μM leupeptin, 10 μM pepstatin A, 5 μM trypsin inhibitor) and disrupted by ultrasonication. The homogenate was then centrifuged for 10 min at 1000×g and the supernatant was stored at −80° C. until subsequent use (see below). The protein content was determined by the Bradford method (BioRad, Munich) using BSA (Bovine serum albumin) as the standard.
PDE4B1 activities were measured in a 96-well platform using SPA (scintillation proximity assay) yttrium silicate beads (RPNQ1050 from GE Healthcare). In a first step the PDE activity operated hydrolysis of either [^3H] cAMP (substrate) into […]. In a second step substrate and product were distinguished following addition of SPA yttrium silicate beads. […] Close proximity of bound [^3H] […] The test volume was 100 μl and finally contained 20 mM Tris buffer (pH 7.4), 0.1 mg/ml of BSA, 5 mM Mg^2+, 0.5 μM cAMP (including about 50,000 cpm of [3H]cAMP) as substrate, 1 μl of the respective substance dilution in DMSO and sufficient recombinant PDE (1000×g supernatant, see above) to ensure that 10-20% of the cAMP was converted under the said experimental conditions. […] After a preincubation of 5 min at 37° C., the reaction was commenced by adding the substrate (cAMP) and the assays were incubated for a further 15 min. Reactions were terminated by adding SPA beads (50 μl). In agreement with the manufacturer's instructions, the SPA beads had previously been resuspended in water, but were then diluted 1:3 (v/v) in water. This diluted solution further contained 3 mM IBMX (isobutylmethylxanthine) to ensure a complete block of PDE activity. Once the beads were sedimented (>30 min), the MTP's (micro titerplate) were analyzed in commercially available […]. The corresponding IC50 values of the compounds for inhibition of PDE4B1 activity were determined from the concentration-effect curves by means of non-linear regression.
(§1) The numbers of the compounds correspond to the numbers of the examples.

[2] = biological target: T2, human PDE5 (Homo sapiens, UniProt O76074); experiment: Inhibition of PDE5 activity (platelet lysate, SPA assay); type: biochemical; settings: 0.5 μM cGMP, read-out: PDE5 Inhibitory values measured as -logIC50 (converted)
T2 construct: from tissue; host or cells: human platelets from fresh donor blood (platelet lysate)
Method: Method for Measuring Inhibition of PDE5 Activity
As a source for human PDE5, platelets were used. For that purpose, 150 ml fresh blood from human donors anticoagulated with citrate [final concentration 0.3% (w/v)] was centrifuged at 200 g for 10 min to obtain the so-called platelet-rich-plasma (PRP) as a supernatant. […] After centrifugation (1,400 g, 10 min) the cell pellet was resuspended in 3 ml homogenization buffer (NaCl 140 mM, KCl 3.8 mM, EGTA (ethylene glycol tetraacetic acid) 1 mM, MgCl2 1 mM, Tris-HCl 20 mM, beta-mercaptoethanol 1 mM, pH 8.2) plus protease-inhibitor mix resulting in final concentrations of 0.5 mM Pefablock (Roche), 10 μM Leupeptin, 5 μM Trypsine inhibitor, 2 mM Benzamidin and 10 μM Pepstatin A. The suspension was sonicated and thereafter centrifuged for 15 min at 10,000 g. The resulting supernatant (platelet lysate) was used for enzymatic assays.
PDE5 activities were measured in a 96-well platform using SPA (scintillation proximity assay) yttrium silicate beads (RPNQ1050 from GE Healthcare). In a first step the PDE activity operated hydrolysis of either [^3H] cGMP (substrate) into [^3H] 5′GMP. In a second step substrate and product were distinguished following addition of SPA yttrium silicate beads. Indeed, in the presence of zinc sulphate the linear [^3H] […] Close proximity of bound [^3H] […] The test volume was 100 μl and contained 20 mM Tris buffer (pH 7.4), 0.1 mg of BSA (bovine serum albumin)/ml, 5 mM Mg^2+, 1 μM motapizone (PDE3 Inhibitor), 10 nM PDE2 inhibitor 2-(3,4-dimethoxybenzyl)-7-[(1R,2R)-2-hydroxy-1-(2-phenylethyl)propyl]-5-methylimidazo[5,1-f][1,2,4]triazin-4(3H)-one, 0.5 μM cGMP (cyclic guanosine monophosphate) (including about 50,000 cpm of [3H]cGMP as a tracer) (substrate), 1 μl of the respective compound dilution in dimethylsulfoxide (DMSO) and sufficient PDE5-containing platelet lysat (10,000×g supernatant, see above) to ensure that 10-20% of the cGMP was converted under the said experimental conditions. […] After a preincubation of 5 min at 37° C., the reaction was commenced by adding the substrate (cGMP) and the assay was incubated for a further 15 min. The reaction was terminated by adding SPA beads (50 μl). In agreement with the manufacturer's instructions, the SPA beads had previously been resuspended in water, but were then diluted 1:3 (v/v) in water. This diluted solution also contained 3 mM 8-methoxymethyl-3-isobutyl-1-methylxanthine (IBMX) to ensure a complete block of PDE activity. Once the beads were sedimented (>30 min), the MTP's were analyzed in commercially available luminescence detection devices. The corresponding IC50 values of the compounds for inhibition of PDE activity were determined from the concentration-effect curves by means of non-linear regression.
as §1

T1 sequence (Q07343 whole entry): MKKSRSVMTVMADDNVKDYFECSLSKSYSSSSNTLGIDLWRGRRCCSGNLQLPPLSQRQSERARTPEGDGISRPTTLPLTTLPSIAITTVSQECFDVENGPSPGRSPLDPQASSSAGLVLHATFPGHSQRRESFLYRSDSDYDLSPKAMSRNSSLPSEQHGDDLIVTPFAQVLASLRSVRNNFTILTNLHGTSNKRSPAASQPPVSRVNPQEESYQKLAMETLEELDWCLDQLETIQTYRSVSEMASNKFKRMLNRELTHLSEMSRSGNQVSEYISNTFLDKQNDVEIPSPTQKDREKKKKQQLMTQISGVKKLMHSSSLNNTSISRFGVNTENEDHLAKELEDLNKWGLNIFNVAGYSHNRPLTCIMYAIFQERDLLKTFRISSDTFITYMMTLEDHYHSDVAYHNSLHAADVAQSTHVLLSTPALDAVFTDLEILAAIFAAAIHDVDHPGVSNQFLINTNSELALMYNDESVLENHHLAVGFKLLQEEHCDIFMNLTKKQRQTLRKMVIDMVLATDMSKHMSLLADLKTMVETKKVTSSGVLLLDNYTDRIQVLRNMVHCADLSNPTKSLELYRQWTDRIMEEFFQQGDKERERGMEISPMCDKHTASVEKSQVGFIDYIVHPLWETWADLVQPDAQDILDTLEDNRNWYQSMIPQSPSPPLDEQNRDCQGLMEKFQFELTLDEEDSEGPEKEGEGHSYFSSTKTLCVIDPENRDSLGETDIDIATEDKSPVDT

SMILES | IC50 [1] | IC50 [2]
COc1ccc(C2=NN(C3CCN(C(=O)[C@@H](NC(=O)c4c[nH]c5c(-c6c(OCC7CC7)ccc7c6OCO7)ncnc45)C4CCCCC4)CC3)C(=O)[C@@H]3CCCC[C@H]23)cc1OC [Example 73, N-[(1S)-1-cyclohexyl-2-{4-[(4aS,8aR)-4-(3,4-dimethoxyphenyl)-1-oxo-4a,5,6,7,8,8a-hexahydrophthalazin-2(1H)-yl]piperidin-1-yl}-2-oxoethyl]-4-[5-(cyclopropylmethoxy)-1,3-benzodioxol-4-yl]-5H-pyrrolo[3,2-d]pyrimidine-7-carboxamide] | 1 to 10 nM | 1 to 10 nM
COc1ccc(C2=NN(C3CCN(C(=O)[C@@H](C)NC(=O)c4c[nH]c5c(-c6c(OCC7CC7)ccc7c6OCO7)ncnc45)CC3)C(=O)[C@@H]3CCCC[C@H]23)cc1OC [Example 62, 4-[5-(cyclopropylmethoxy)-1,3-benzodioxol-4-yl]-N-[(2R)-1-{4-[(4aS,8aR)-4-(3,4-dimethoxyphenyl)-1-oxo-4a,5,6,7,8,8a-hexahydrophthalazin-2(1H)-yl]piperidin-1-yl}-1-oxopropan-2-yl]-5H-pyrrolo[3,2-d]pyrimidine-7-carboxamide] | < 1 nM | 1 to 10 nM
COc1ccc(C2=NN(C3CCN(C(=O)[C@@H](Cc4ccccc4)NC(=O)c4c(C)[nH]c5c(-c6c(OCC7CC7)ccc7c6OCO7)ncnc45)CC3)C(=O)[C@@H]3CCCC[C@H]23)cc1OC [Example 26, 4-[5-(cyclopropylmethoxy)-1,3-benzodioxol-4-yl]-N-[(2R)-1-{4-[(4aS,8aR)-4-(3,4-dimethoxyphenyl)-1-oxo-4a,5,6,7,8,8a-hexahydrophthalazin-2(1H)-yl]piperidin-1-yl}-1-oxo-3-phenylpropan-2-yl]-6-methyl-5H-pyrrolo[3,2-d]pyrimidine-7-carboxamide] | 1 to 10 nM | < 1 nM
COc1ccc(C2=NN(C3CCN(C(=O)[C@H](Cc4c[nH]cn4)NC(=O)c4c[nH]c5c(-c6c(OCC7CC7)ccc7c6OCO7)ncnc45)CC3)C(=O)[C@@H]3CCCC[C@H]23)cc1OC [Example 90, 4-[5-(cyclopropylmethoxy)-1,3-benzodioxol-4-yl]-N-[(2S)-1-{4-[(4aS,8aR)-4-(3,4-dimethoxyphenyl)-1-oxo-4a,5,6,7,8,8a-hexahydrophthalazin-2(1H)-yl]piperidin-1-yl}-3-(1H-imidazol-4-yl)-1-oxopropan-2-yl]-5H-pyrrolo[3,2-d]pyrimidine-7-carboxamide] | < 1 nM | < 1 nM
COc1ccc(C2=NN(C3CCN(C(=O)[C@@H](Cc4ccc(-c5ccccc5)cc4)NC(=O)c4c(C)[nH]c5c(-c6c(OCC7CC7)ccc7c6OCO7)ncnc45)CC3)C(=O)[C@@H]3CCCC[C@H]23)cc1OC [Example 12, N-[(2R)-3-(biphenyl-4-yl)-1-{4-[(4aS,8aR)-4-(3,4-dimethoxyphenyl)-1-oxo-4a,5,6,7,8,8a-hexahydrophthalazin-2(1H)-yl]piperidin-1-yl}-1-oxopropan-2-yl]-4-[5-(cyclopropylmethoxy)-1,3-benzodioxol-4-yl]-6-methyl-5H-pyrrolo[3,2-d]pyrimidine-7-carboxamide] | 1 to 10 nM | 1 to 10 nM
COc1ccc(C2=NN(C3CCN(C(=O)CNC(=O)c4c[nH]c5c(-c6c(OCC7CC7)ccc7c6OCO7)ncnc45)CC3)C(=O)C(C)(C)C2)c2c1OC(C)(C)C2 [Example 117, 4-[5-(cyclopropylmethoxy)-1,3-benzodioxol-4-yl]-N-(2-{4-[3-(7-methoxy-2,2-dimethyl-2,3-dihydro-1-benzofuran-4-yl)-5,5-dimethyl-6-oxo-5,6-dihydropyridazin-1(4H)-yl]piperidin-1-yl}-2-oxoethyl)-5H-pyrrolo[3,2-d]pyrimidine-7-carboxamide] | 1 to 10 nM | 1 to 10 nM
COc1ccc(C2=NN(C3CCN(C(=O)[C@@H](CCC(=O)O)NC(=O)c4c[nH]c5c(-c6c(OCC7CC7)ccc7c6OCO7)ncnc45)CC3)C(=O)[C@@H]3CCCC[C@H]23)cc1OC [Example 101, (4R)-4-[({4-[5-(cyclopropylmethoxy)-1,3-benzodioxol-4-yl]-5H-pyrrolo[3,2-d]pyrimidin-7-yl}carbonyl)amino]-5-{4-[(4aS,8aR)-4-(3,4-dimethoxyphenyl)-1-oxo-4a,5,6,7,8,8a-hexahydrophthalazin-2(1H)-yl]piperidin-1-yl}-5-oxopentanoic acid] | 1 to 10 nM | 1 to 10 nM
COc1ccc(C2=NN(C3CCN(C(=O)CNC(=O)c4c[nH]c5c(-c6c(OCC7CC7)ccc7c6OCO7)ncnc45)CC3)C(=O)C3(CCCC3)C2)cc1OC [Example 122, 4-[5-(cyclopropylmethoxy)-1,3-benzodioxol-4-yl]-N-(2-{4-[9-(3,4-dimethoxyphenyl)-6-oxo-7,8-diazaspiro[4.5]dec-8-en-7-yl]piperidin-1-yl}-2-oxoethyl)-5H-pyrrolo[3,2-d]pyrimidine-7-carboxamide] | 1 to 10 nM | 1 to 10 nM
COc1ccc(C2=NN(C3CCN(C(=O)[C@H](CN(C)C)NC(=O)c4c[nH]c5c(-c6c(OCC7CC7)ccc7c6OCO7)ncnc45)CC3)C(=O)[C@@H]3CCCC[C@H]23)cc1OC [Example 97, 4-[5-(cyclopropylmethoxy)-1,3-benzodioxol-4-yl]-N-[(2S)-1-{4-[(4aS,8aR)-4-(3,4-dimethoxyphenyl)-1-oxo-4a,5,6,7,8,8a-hexahydrophthalazin-2(1H)-yl]piperidin-1-yl}-3-(dimethylamino)-1-oxopropan-2-yl]-5H-pyrrolo[3,2-d]pyrimidine-7-carboxamide] | 1 to 10 nM | 1 to 10 nM
